Laboratory results taken from patent US7074789B2, “Kinase inhibitors” (Amgen Inc., priority 1999, dated 2006).

Key:
Assay type in all cases: biochemical
Kdr = molecular target: T1, Kdr (Homo sapiens, UniProt P35968); assay: Kinase inhibition assay (33P transfer), Kdr; conditions: Table 3; read-out: KDR-1
T1 construct: Kinases are expressed as either kinase domains or full length constructs; made in house
How it was run: (§1)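 Steps: express kinase as GST or polyHistidine fusion in E. coli or High Five cells; optionally co-express or mix with regulatory polypeptides; incubate with 33P-ATP and plate-attached poly(Glu,Tyr) 4:1 or poly(Arg,Ser) 3:1; wash with 0.5% phosphoric acid; count by liquid scintillation.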

c-Met = molecular target: T2, c-Met (Homo sapiens, UniProt P08581); assay: Kinase inhibition assay (33P transfer), c-Met; conditions: Table 2, kinase inhibition class; read-out: Met-1
T2 construct: Kinases are expressed as either kinase domains or full length constructs; made in house
How it was run: (§2)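 Each enzyme, purified to near homogeneity by affinity chromatography, was incubated with ATP carrying 33P and a substrate polymer fixed to the plate. Unbound label was removed with dilute phosphoric acid (0.5%) before adding scintillant and counting. Potency is given as the compound level cutting label uptake by 50%.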

EPHB4 = molecular target: T3, EPHB4 (Homo sapiens, UniProt P54760); assay: Kinase inhibition assay (33P transfer), EPHB4; conditions: read-out: EPHB4-1
T3 construct: Kinases are expressed as either kinase domains or full length constructs; made in house
T3 sequence (P54760 16-987): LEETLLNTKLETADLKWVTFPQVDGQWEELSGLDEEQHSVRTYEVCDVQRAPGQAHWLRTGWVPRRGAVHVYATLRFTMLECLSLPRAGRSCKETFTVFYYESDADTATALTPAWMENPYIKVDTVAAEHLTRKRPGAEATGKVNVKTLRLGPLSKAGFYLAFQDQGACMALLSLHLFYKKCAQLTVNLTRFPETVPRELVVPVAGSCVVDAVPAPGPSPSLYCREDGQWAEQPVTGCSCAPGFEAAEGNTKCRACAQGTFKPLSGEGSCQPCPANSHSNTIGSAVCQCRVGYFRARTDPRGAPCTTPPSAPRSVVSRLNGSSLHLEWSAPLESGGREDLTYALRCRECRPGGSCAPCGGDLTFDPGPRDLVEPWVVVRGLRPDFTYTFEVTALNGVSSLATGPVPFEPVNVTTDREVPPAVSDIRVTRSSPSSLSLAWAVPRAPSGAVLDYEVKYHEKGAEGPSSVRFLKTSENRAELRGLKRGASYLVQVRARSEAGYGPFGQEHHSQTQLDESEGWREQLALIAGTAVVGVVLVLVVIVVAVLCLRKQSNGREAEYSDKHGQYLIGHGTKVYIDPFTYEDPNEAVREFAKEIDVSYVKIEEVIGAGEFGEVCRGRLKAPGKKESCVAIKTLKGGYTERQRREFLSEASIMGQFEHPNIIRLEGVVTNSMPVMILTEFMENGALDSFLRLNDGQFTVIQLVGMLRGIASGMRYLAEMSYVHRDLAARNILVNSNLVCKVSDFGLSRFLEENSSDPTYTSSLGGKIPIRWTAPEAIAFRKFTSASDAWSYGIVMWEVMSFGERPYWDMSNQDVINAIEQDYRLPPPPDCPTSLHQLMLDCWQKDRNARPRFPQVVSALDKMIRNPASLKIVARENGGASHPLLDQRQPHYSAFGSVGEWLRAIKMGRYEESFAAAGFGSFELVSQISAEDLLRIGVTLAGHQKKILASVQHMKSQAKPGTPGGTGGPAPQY

Lck = molecular target: T4, Lck (Homo sapiens, UniProt P06239); assay: Kinase inhibition assay (33P transfer), Lck; conditions: Table 3; read-out: Lck-1
T4 construct: Kinases are expressed as either kinase domains or full length constructs; made in house
How it was run: as §1

Itk = molecular target: T5, Itk (Homo sapiens, UniProt Q08881); assay: Kinase inhibition assay (33P transfer), Itk; conditions: Table 3; read-out: Itk-1
T5 construct: Kinases are expressed as either kinase domains or full length constructs; made in house
T5 sequence (Q08881 1-620): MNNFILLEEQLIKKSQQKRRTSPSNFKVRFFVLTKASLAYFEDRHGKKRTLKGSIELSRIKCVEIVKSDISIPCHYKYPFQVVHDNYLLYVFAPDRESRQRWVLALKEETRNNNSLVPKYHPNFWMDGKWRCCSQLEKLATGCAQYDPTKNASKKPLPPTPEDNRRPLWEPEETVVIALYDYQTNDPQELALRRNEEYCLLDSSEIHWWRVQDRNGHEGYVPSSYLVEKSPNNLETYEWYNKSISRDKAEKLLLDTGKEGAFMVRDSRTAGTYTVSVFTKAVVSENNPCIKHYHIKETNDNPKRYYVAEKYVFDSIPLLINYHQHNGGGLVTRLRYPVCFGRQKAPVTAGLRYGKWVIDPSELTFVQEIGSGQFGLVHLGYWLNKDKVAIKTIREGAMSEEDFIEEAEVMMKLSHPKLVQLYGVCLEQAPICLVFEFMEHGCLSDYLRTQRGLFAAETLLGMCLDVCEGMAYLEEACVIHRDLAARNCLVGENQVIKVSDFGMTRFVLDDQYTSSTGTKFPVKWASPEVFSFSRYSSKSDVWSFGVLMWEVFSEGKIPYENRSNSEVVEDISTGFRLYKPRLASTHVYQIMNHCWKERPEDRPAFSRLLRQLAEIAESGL
How it was run: as §2

Zap-70 = molecular target: T6, Zap-70 (Homo sapiens, UniProt P43403); assay: Kinase inhibition assay (33P transfer), Zap-70; conditions: Table 3; read-out: Zap-1
T6 construct: Kinases are expressed as either kinase domains or full length constructs; made in house
T6 sequence (P43403 1-619): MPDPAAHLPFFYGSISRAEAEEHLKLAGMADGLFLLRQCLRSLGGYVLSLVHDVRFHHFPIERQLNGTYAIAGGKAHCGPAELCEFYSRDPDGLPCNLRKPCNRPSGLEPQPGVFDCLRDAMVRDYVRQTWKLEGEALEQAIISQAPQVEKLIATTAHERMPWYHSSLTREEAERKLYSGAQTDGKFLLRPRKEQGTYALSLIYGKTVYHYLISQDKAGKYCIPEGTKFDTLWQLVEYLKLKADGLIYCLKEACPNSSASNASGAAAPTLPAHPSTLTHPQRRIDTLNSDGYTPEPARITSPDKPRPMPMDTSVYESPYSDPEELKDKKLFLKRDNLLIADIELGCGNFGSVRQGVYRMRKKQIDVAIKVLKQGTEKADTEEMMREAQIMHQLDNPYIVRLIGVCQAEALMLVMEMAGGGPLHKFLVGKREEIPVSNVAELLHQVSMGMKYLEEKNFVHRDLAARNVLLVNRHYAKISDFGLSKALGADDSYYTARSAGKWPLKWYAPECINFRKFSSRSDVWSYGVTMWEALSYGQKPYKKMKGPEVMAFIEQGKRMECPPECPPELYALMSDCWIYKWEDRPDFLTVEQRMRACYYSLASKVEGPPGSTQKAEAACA
How it was run: as §1

IGFR-1 = molecular target: T7, IGFR-1 (Homo sapiens, UniProt P08069); assay: Kinase inhibition assay (33P transfer), IGFR-1; conditions: Table 2, kinase inhibition class
T7 construct: Kinases are expressed as either kinase domains or full length constructs; made in house

AKT = molecular target: T8, AKT (Homo sapiens, UniProt Q9Y243); assay: Kinase inhibition assay (33P transfer), AKT; conditions: Table 2, kinase inhibition class; read-out: AKT3-1
T8 construct: Kinases are expressed as either kinase domains or full length constructs; made in house
How it was run: as §1

Tek = molecular target: T9, Tek (Homo sapiens, UniProt Q02763); assay: Kinase inhibition assay (33P transfer), Tek; conditions: read-out: Tek-1
T9 construct: Kinases are expressed as either kinase domains or full length constructs; made in house
How it was run: as §2

EGFR = molecular target: T10, EGFR (Homo sapiens, UniProt P00533); assay: Kinase inhibition assay (33P transfer), EGFR; conditions: Table 2, kinase inhibition class; read-out: EGFR-1
T10 construct: Kinases are expressed as either kinase domains or full length constructs; made in house
How it was run: as §2

T10 sequence (P00533 25-1210, species assumed): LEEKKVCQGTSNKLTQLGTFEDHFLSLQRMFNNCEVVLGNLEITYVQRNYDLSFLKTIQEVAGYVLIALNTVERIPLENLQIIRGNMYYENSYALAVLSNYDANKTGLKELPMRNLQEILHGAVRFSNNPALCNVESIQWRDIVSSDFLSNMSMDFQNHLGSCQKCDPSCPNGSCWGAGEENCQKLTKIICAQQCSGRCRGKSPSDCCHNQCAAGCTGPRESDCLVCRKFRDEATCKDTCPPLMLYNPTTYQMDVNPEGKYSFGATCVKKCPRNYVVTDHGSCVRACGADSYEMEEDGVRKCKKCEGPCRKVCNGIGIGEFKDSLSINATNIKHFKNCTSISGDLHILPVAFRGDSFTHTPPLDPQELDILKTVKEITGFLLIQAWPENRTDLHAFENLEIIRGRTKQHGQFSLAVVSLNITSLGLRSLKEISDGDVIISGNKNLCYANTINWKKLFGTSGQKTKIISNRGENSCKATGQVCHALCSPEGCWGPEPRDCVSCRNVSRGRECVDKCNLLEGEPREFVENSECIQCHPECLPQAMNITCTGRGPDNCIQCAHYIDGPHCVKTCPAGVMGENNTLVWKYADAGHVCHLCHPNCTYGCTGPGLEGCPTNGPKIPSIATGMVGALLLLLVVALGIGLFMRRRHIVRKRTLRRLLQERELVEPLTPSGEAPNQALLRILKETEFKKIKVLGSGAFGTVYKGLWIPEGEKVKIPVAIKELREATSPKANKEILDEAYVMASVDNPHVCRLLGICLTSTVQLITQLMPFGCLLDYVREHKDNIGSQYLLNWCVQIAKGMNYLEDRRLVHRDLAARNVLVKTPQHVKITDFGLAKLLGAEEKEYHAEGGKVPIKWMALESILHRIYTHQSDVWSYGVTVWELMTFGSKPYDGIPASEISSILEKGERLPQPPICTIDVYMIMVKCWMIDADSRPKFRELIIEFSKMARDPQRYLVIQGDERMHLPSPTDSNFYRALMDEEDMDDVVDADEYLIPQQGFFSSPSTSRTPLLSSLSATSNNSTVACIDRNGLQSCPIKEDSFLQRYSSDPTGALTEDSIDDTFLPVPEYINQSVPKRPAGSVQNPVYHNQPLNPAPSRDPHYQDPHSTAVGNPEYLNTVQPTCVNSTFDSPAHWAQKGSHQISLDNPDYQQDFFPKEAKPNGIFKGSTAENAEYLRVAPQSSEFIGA
T9 sequence (Q02763 23-1124, species assumed): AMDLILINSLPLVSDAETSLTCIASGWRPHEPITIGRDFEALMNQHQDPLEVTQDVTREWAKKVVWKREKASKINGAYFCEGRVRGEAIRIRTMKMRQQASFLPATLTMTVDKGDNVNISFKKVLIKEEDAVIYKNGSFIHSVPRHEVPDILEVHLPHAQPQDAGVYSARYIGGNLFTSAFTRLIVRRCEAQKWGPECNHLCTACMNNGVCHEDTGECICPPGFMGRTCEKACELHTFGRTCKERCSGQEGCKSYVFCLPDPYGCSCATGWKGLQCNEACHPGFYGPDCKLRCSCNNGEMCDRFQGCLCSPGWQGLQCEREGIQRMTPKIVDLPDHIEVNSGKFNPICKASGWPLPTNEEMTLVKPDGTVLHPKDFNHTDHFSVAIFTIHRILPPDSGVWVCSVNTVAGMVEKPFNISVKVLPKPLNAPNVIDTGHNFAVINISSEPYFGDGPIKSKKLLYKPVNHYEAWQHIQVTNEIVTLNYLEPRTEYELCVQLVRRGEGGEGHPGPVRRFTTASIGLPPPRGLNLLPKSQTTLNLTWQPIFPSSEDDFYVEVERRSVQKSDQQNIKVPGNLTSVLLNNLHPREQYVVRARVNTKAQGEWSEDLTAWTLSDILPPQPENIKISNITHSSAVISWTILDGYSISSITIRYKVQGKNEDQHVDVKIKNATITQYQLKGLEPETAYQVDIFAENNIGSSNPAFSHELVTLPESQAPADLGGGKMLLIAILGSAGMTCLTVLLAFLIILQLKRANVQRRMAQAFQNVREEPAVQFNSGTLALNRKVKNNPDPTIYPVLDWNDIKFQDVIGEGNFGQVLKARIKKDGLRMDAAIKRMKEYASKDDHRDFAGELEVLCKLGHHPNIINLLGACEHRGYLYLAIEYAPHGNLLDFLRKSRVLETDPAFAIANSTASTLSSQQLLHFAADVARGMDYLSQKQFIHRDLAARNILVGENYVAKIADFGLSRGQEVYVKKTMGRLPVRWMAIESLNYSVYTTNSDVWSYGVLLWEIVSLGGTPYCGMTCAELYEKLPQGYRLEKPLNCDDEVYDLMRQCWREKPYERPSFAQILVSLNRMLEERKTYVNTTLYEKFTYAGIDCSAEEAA
T1 sequence (P35968 20-1356, species assumed): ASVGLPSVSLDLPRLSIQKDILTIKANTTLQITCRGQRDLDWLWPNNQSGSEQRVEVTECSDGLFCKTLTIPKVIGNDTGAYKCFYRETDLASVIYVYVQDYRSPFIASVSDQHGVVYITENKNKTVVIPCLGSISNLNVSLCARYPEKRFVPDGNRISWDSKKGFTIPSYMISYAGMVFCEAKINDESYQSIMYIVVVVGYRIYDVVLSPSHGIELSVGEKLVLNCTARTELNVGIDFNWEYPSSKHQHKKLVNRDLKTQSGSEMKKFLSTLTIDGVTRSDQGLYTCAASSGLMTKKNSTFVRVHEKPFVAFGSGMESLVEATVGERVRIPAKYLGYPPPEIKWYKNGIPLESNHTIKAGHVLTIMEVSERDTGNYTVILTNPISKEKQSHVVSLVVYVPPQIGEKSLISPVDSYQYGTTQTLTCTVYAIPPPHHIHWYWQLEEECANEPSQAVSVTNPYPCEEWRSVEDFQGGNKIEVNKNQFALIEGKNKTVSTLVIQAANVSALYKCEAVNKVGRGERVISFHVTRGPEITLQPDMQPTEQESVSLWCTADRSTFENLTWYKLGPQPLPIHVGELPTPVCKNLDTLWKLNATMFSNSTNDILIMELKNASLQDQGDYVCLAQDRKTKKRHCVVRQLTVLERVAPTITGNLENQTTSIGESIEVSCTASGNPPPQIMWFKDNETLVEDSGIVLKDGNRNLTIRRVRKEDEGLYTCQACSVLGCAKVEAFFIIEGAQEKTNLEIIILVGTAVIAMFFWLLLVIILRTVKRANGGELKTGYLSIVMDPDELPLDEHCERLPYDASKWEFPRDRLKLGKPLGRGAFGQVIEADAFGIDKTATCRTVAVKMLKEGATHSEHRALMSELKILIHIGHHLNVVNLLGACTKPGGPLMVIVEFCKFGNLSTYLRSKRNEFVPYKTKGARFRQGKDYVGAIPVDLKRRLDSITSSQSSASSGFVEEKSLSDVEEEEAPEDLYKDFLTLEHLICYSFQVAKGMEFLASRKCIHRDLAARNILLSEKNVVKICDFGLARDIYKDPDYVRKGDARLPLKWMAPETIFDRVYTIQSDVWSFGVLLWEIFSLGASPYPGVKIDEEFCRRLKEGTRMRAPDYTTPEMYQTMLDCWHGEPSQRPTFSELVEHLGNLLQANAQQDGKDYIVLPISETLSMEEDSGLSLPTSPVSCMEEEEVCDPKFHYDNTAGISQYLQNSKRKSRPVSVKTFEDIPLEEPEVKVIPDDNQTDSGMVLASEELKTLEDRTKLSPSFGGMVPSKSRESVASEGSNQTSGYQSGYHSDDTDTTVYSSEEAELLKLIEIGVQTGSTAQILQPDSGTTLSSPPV
T2 sequence (P08581 25-1390): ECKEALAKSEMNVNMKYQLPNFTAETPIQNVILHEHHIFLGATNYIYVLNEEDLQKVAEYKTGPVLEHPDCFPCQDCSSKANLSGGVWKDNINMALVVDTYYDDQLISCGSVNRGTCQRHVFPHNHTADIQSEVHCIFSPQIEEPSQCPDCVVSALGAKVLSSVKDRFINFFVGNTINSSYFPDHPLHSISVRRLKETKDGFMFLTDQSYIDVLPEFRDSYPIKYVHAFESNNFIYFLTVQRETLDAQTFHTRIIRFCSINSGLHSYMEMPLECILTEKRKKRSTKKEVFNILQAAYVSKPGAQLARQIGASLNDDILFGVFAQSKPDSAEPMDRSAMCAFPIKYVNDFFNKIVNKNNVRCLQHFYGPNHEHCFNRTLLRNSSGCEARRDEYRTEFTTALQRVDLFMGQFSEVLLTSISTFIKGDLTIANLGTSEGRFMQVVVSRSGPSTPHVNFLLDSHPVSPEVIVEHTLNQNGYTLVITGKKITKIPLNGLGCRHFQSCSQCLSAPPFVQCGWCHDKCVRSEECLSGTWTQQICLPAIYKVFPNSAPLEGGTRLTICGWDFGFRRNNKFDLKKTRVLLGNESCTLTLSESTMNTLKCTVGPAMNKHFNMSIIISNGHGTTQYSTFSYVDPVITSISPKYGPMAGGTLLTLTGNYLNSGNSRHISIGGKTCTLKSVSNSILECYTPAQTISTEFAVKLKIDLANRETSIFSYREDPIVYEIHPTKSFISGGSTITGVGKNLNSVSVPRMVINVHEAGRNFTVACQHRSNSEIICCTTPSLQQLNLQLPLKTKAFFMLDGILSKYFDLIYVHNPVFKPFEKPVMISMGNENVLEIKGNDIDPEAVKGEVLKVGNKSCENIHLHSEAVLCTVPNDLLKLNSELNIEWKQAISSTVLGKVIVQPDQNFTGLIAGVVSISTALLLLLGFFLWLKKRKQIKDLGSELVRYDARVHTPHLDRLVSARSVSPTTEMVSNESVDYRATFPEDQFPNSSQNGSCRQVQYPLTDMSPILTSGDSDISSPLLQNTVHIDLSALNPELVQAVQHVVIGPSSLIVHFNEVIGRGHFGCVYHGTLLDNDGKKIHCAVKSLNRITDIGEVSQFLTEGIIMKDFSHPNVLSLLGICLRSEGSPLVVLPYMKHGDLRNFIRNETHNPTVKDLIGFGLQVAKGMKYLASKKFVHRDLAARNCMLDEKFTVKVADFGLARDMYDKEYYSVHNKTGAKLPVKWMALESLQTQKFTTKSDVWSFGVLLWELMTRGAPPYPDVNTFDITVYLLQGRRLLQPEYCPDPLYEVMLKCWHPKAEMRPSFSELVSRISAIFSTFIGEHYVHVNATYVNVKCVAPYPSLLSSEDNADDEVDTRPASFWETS

Compound | IC50 (Kdr) | IC50 (c-Met) | IC50 (EPHB4) | IC50 (Lck) | IC50 (Itk) | IC50 (Zap-70) | IC50 (IGFR-1) | IC50 (AKT) | IC50 (Tek) | IC50 (EGFR)
COc1ccc(Nc2ncnc(Nc3ccc(F)c(Cl)c3)n2)cc1OC [Compound 113] | > 12 µM | > 12 µM | 6.39 to 9.31 µM | > 12 µM | > 12 µM | > 12 µM | < 1.06 µM | > 12 µM | > 12 µM | 1.06 to 6.39 µM
COc1cc(Nc2ncnc(Nc3ccc(-c4ccccc4)cc3)n2)cc(OC)c1OC [Compound 100] | 0.931 to 5.59 µM | > 10.5 µM | 0.931 to 5.59 µM | > 10.5 µM | > 10.5 µM | 0.931 to 5.59 µM | 5.59 to 8.15 µM | 5.59 to 8.15 µM | > 10.5 µM | 8.15 to 10.5 µM
c1ccc(-c2ncnc(Nc3ccc(OCCCN4CCOCC4)cc3)n2)cc1 [Compound 154] | 1.02 to 6.13 µM | > 11.5 µM | 8.94 to 11.5 µM | > 11.5 µM | > 11.5 µM | > 11.5 µM | 1.02 to 6.13 µM | > 11.5 µM | > 11.5 µM | > 11.5 µM
O=c1[nH]c2ccccc2n1-c1ncnc(Nc2ccc(-c3cnco3)cc2)n1 [Compound 379] | 9.42 to 12.1 µM | > 12.1 µM | > 12.1 µM | > 12.1 µM | > 12.1 µM | > 12.1 µM | > 12.1 µM | > 12.1 µM | > 12.1 µM | > 12.1 µM
COc1cc(Nc2ncnc(N(CC(=O)OC(C)(C)C)c3ccc4c(c3)OCO4)n2)cc(OC)c1OC [Compound 309] | 6.84 to 8.8 µM | > 8.8 µM | > 8.8 µM | 6.84 to 8.8 µM | > 8.8 µM | > 8.8 µM | > 8.8 µM | > 8.8 µM | > 8.8 µM | 4.69 to 6.84 µM
COCCOc1ccc(Nc2ncnc(Nc3ccc(C)c(F)c3)n2)cc1OCCOC [Compound 322] | 0.902 to 5.41 µM | > 10.1 µM | > 10.1 µM | > 10.1 µM | > 10.1 µM | > 10.1 µM | > 10.1 µM | > 10.1 µM | > 10.1 µM | > 10.1 µM
COc1cc(Nc2ncnc(Nc3ccc(O)cc3C)n2)cc(OC)c1OC [Compound 927] | 1.04 to 6.26 µM | > 11.7 µM | > 11.7 µM | 6.26 to 9.13 µM | > 11.7 µM | > 11.7 µM | > 11.7 µM | > 11.7 µM | > 11.7 µM | 6.26 to 9.13 µM
COc1ccc(CNc2ncnc(Nc3cc(OC)c(OC)c(OC)c3)n2)cc1 [Compound 80] | > 11.3 µM | > 11.3 µM | > 11.3 µM | > 11.3 µM | > 11.3 µM | > 11.3 µM | > 11.3 µM | > 11.3 µM | > 11.3 µM | > 11.3 µM
OCCCNc1cc(-c2ncnc(Nc3cccc(OC(F)(F)C(F)F)c3)n2)ccn1 [Compound 372] | > 10.3 µM | > 10.3 µM | > 10.3 µM | > 10.3 µM | > 10.3 µM | > 10.3 µM | > 10.3 µM | > 10.3 µM | > 10.3 µM | > 10.3 µM
COCCOc1ccc(Nc2ncnc(-c3ccccc3)n2)cc1 [Compound 155] | > 14 µM | > 14 µM | > 14 µM | > 14 µM | > 14 µM | > 14 µM | > 14 µM | > 14 µM | > 14 µM | > 14 µM
COc1cc(Nc2ncnc(Nc3c(C)n(C)n(-c4ccccc4)c3=O)n2)cc(OC)c1OC [Compound 256] | 7.55 to 9.71 µM | > 9.71 µM | > 9.71 µM | > 9.71 µM | > 9.71 µM | > 9.71 µM | > 9.71 µM | > 9.71 µM | > 9.71 µM | > 9.71 µM
COc1cc(Nc2ncnc(Nc3ccc(S(=O)(=O)NC(C)=O)cc3)n2)cc(OC)c1OC [Compound 255] | < 0.843 µM | > 9.48 µM | > 9.48 µM | > 9.48 µM | > 9.48 µM | > 9.48 µM | > 9.48 µM | > 9.48 µM | > 9.48 µM | > 9.48 µM
COc1cc(Nc2ncnc(Nc3ccc(N(C)C(C)=O)cc3)n2)cc(OC)c1OC [Compound 81] | 0.942 to 5.65 µM | > 10.6 µM | > 10.6 µM | 0.942 to 5.65 µM | > 10.6 µM | > 10.6 µM | > 10.6 µM | > 10.6 µM | > 10.6 µM | > 10.6 µM
COc1cc(Nc2ncnc(Nc3[nH]ncc3-c3ccccc3)n2)cc(OC)c1OC [Compound 369] | > 10.7 µM | > 10.7 µM | > 10.7 µM | 5.72 to 8.34 µM | 8.34 to 10.7 µM | > 10.7 µM | > 10.7 µM | > 10.7 µM | > 10.7 µM | > 10.7 µM
COc1cc(Nc2ncnc(N3CCN(C)CC3)n2)cc(OC)c1OC [Compound 212] | > 12.5 µM | > 12.5 µM | > 12.5 µM | > 12.5 µM | > 12.5 µM | > 12.5 µM | > 12.5 µM | > 12.5 µM | > 12.5 µM | > 12.5 µM
COc1cc(Nc2ncnc(Nc3cccc(Oc4ccccc4)c3)n2)cc(OC)c1OC [Compound 105] | 0.898 to 5.39 µM | 0.898 to 5.39 µM | > 10.1 µM | > 10.1 µM | > 10.1 µM | > 10.1 µM | > 10.1 µM | > 10.1 µM | > 10.1 µM | 0.898 to 5.39 µM
